Values quoted from earlier work, collected in US20130280331A1, “Depot Compositions with multiple drug release rate controls and uses thereof” (Durect Corporation, priority 2001, published 2013).

CC(=O)OCC(COC(C)=O)OC(C)=O [triacetin]
reported solubility in water: 7.17 grams in 100 ml of water
